# Measurements from patent US10358446B2, “Bruton's tyrosine kinase inhibitors” (Zibo Biopolar Changsheng Pharmaceutical Co. Ltd., priority 2015, dated 2019).
# Target: BTK (Homo sapiens (Human), UniProt Q06187)
# Assay: Btk kinase assay (HTRF)
# Format: biochemical
# Conditions: [ATP]=80 μM, BTK=3.4 nM; read-out: BTK Inhibition
# Method in brief: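 HTRF kinase read-out (665/615 nm ratio, excitation 330 nm) after EDTA quench and 1 h detection incubation. Reaction: 3.4 nM BTK, ATP 80 μM, peptide substrate 1 μM, compound, HEPES pH 7.0 buffer, 1 h; IC50 derived using uninhibited and enzyme-free controls.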
# BTK, sequence (Q06187 whole entry, species assumed): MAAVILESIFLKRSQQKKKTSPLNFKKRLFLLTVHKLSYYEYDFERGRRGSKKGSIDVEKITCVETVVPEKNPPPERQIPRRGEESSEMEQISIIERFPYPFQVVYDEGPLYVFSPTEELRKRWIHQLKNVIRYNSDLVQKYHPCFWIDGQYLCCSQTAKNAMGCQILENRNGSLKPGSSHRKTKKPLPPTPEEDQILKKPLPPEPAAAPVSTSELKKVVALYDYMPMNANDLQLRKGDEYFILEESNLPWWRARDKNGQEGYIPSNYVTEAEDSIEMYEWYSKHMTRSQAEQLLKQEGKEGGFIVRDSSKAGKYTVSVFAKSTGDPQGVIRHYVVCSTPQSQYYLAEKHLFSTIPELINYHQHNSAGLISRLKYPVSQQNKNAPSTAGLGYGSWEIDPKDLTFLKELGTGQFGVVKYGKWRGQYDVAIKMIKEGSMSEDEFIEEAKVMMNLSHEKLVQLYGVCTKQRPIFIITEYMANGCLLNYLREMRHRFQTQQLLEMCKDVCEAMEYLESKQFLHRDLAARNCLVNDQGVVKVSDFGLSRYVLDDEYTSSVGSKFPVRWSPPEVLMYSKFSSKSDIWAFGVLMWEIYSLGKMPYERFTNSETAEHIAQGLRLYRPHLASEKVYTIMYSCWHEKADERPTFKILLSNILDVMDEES
row,IC50,SMILES
1,≤ 10 nM,"C=CC(=O)N1CCC[C@@H](n2c(=O)n(-c3ccc(Oc4cccc(OC)c4F)cc3)c3cncc(OCC)c32)C1 [Example 167, (R)-1-(1-acryloylpiperidin-3-yl)-7-ethoxy-3-(4-(2-fluoro-3-methoxyphenoxy)phenyl)-1H-imidazo [4,5-c]pyridin-2(3H)-one]"
2,≥ 10000 nM,"O=C(/C=C/c1ccccc1)Nc1cccc(-n2c(=O)n(-c3ccc(Oc4ccccc4)cc3)c3cnccc32)c1 [Example 109, N-(3-(2-oxo-3-(4-phenoxyphenyl)-2,3-dihydro-1H-imidazo[4,5-c]pyridin-1-yl)phenyl)cinnamamide]"
3,≤ 10 nM,"C=CC(=O)N1CCC[C@@H](n2c(=O)n(-c3ccc(Oc4cccc(OC)c4Cl)cc3)c3cnccc32)C1 [Example 185, (R)-1-(1-acryloylpiperidin-3-yl)-3-(4-(2-chloro-3-methoxyphenoxy)phenyl)-1H-imidazo[4,5-c]pyridin-2(3H)-one]"
4,100 to 1000 nM,"C=CC(=O)N1CC[C@@H](n2c(=O)n(-c3ccc(OCc4ccc(C(F)(F)F)cc4)cc3)c3cnccc32)C1 [Example 212, (R)-1-(1-acryloylpyrrolidin-3-yl)-3-(4-((4-(trifluoromethyl)benzyl)oxy)phenyl)-1H-imidazo[4,5-c]pyridin-2(3H)-one]"
5,100 to 1000 nM,"C=CC(=O)Nc1cccc(-n2c(=O)n(-c3ccc(OCc4ccc(Cl)c(Cl)c4)cc3)c3cnccc32)c1 [Example 218, N-(3-(3-(4-((3,4-dichlorobenzyl)oxy)phenyl)-2-oxo-2,3-dihydro-1H-imidazo[4,5-c]pyridin-1-yl)phenyl)acrylamide]"
6,10 to 100 nM,"C=CC(=O)N1CC[C@@H](n2c(=O)n(-c3ccc(Oc4cccc(OC)c4)c(F)c3)c3cnccc32)C1 [Example 53, (R)-1-(1-acryloylpyrrolidin-3-yl)-3-(3-fluoro-4-(3-methoxyphenoxy)phenyl)-1H-imidazo[4,5-c]pyridin-2(3H)-one]"
7,100 to 1000 nM,"C=CC(=O)N1CC[C@@H](n2c(=S)n(-c3ccc(Oc4cccc(C)c4)cc3)c3cnccc32)C1 [Example 11, (R)-1-(3-(2-thioxo-3-(4-(m-tolyloxy)phenyl)-2,3-dihydro-1H-imidazo[4,5-c]pyridin-1-yl)pyrrolidin-1-yl)prop-2-en-1-one]"
8,100 to 1000 nM,"C=CC(=O)Nc1cccc(-n2c(=O)n(-c3ccc(OCc4cc(F)ccc4F)cc3)c3cnccc32)c1 [Example 220, N-(3-(3-(4-((2,5-difluorobenzyl)oxy)phenyl)-2-oxo-2,3-dihydro-1H-imidazo[4,5-c]pyridin-1-yl)phenyl)acrylamide]"
9,100 to 1000 nM,C=CC(=O)Nc1cccc(-n2c(=O)n(-c3ccc(Oc4cccc(Cl)c4)c(F)c3)c3cnccc32)c1 [Example 50]
10,10 to 100 nM,"C=CC(=O)N1CC[C@@H](n2c(=O)n(-c3ccc(Oc4cccc(Cl)c4)cc3)c3cnccc32)C1 [Example 72, (R)-1-(1-acryloylpyrrolidin-3-yl)-3-(4-(3-chlorophenoxy)phenyl)-1H-imidazo[4,5-c]pyridin-2(3H)-one]"
11,100 to 1000 nM,"C=CC(=O)N1CC[C@@H](n2c(=O)n(-c3ccc(OCc4ccccc4F)c(Cl)c3)c3cnccc32)C1 [Example 236, (R)-1-(1-acryloylpyrrolidin-3-yl)-3-(3-chloro-4-((2-fluorobenzyl)oxy)phenyl)-1,3-dihydro-2H-imidazo[4,5-c]pyridin-2-one]"
12,≥ 10000 nM,"C=CC(=O)N1CC[C@@H](n2c(=O)n(-c3ccc(Oc4ccccc4)cc3)c3c(O)nccc32)C1 [Example 183, (R)-1-(1-acryloylpyrrolidin-3-yl)-4-hydroxy-3-(4-phenoxyphenyl)-1H-imidazo[4,5-c]pyridin-2(3H)-one]"
13,10 to 100 nM,"C=CC(=O)N1CC[C@@H](n2c(=O)n(-c3ccc(Oc4cccc(Cl)c4)c(F)c3)c3cnccc32)C1 [Example 149, (R)-1-(1-acryloylpyrrolidin-3-yl)-3-(4-(3-chlorophenoxy)-3-fluorophenyl)-1H-imidazo[4,5-c]pyridin-2(3H)-one]"
14,10 to 100 nM,"C=CC(=O)Nc1cccc(-n2c(=O)n(-c3ccc(OCc4ccc(Cl)cc4Cl)cc3)c3cnccc32)c1 [Example 229, N-(3-(3-(4-((2,4-dichlorobenzyl)oxy)phenyl)-2-oxo-2,3-dihydro-1H-imidazo[4,5-c]pyridin-1-yl)phenyl)acrylamide]"
15,100 to 1000 nM,"C=CC(=O)Nc1cccc(-n2c(=O)n(-c3ccc(OCc4ccc(F)cc4F)cc3)c3cnccc32)c1 [Example 248, N-(3-(3-(4-((2,4-difluorobenzyl)oxy)phenyl)-2-oxo-2,3-dihydro-1H-imidazo[4,5-c]pyridin-1-yl)phenyl)acrylamide]"
16,100 to 1000 nM,"C=CC(=O)Nc1cccc(-n2c(=O)n(-c3ccc(Oc4cccc(OC(C)C)c4)c(Cl)c3)c3cnccc32)c1 [Example 145, N-(3-(3-(3-chloro-4-(3-isopropoxyphenoxy)phenyl)-2-oxo-2,3-dihydro-1H-imidazo[4,5-c]pyridin-1-yl)phenyl)acrylamide]"
17,10 to 100 nM,"C=CC(=O)Nc1cccc(-n2c(=O)n(-c3ccc(OCc4cccc(Cl)c4)cc3)c3cnccc32)c1 [Example 230, N-(3-(3-(4-((3-chlorobenzyl)oxy)phenyl)-2-oxo-2,3-dihydro-1H-imidazo[4,5-c]pyridin-1-yl)phenyl)acrylamide]"

row,IC50,SMILES
1,10 to 100 nM,"C=CC(=O)Nc1cccc(-n2c(=O)n(-c3ccc(Oc4ccc(Cl)c(Cl)c4)cc3)c3cnccc32)c1 [Example 159, N-(3-(3-(4-(3,4-dichlorophenoxy)phenyl)-2-oxo-2,3-dihydro-1H-imidazo[4,5-c]pyridin-1-yl)phenyl)acrylamide]"
2,1000 to 10000 nM,"C=CC(=O)Nc1cccc(-n2c(=O)n(-c3ccc(-c4ccc(C)cc4)cc3)c3cnccc32)c1 [Example 276, N-(3-(3-(4′-methyl-[1,1′-biphenyl]-4-yl)-2-oxo-2,3-dihydro-1H-imidazo[4,5-c]pyridin-1-yl)phenyl)acrylamide]"
3,100 to 1000 nM,C=CC(=O)N1CC[C@@H](n2c(=O)n(-c3ccc(-c4ccc(OC)cc4F)cc3)c3cnccc32)C1 [Example 274]
4,100 to 1000 nM,"C=CC(=O)N1CC[C@@H](n2c(=O)n(-c3ccc(OCc4ccc(Cl)cc4Cl)c(Cl)c3)c3cnccc32)C1 [Example 208, (R)-1-(1-acryloylpyrrolidin-3-yl)-3-(3-chloro-4-((2,4-dichlorobenzyl)oxy)phenyl)-1H-imidazo[4,5-c]pyridin-2(3H)-one]"
5,10 to 100 nM,"C=CC(=O)Nc1cccc(-n2c(=O)n(-c3cccc(Oc4cccc(Cl)c4)c3)c3cnccc32)c1 [Example 74, N-(3-(3-(3-(3-chlorophenoxy)phenyl)-2-oxo-2,3-dihydro-1H-imidazo[4,5-c]pyridin-1-yl)phenyl)acrylamide]"
6,100 to 1000 nM,C=CC(=O)N1CC[C@@H](n2c(=O)n(-c3ccc(OCc4ccccc4)cc3)c3cnccc32)C1 [Example 246]
7,10 to 100 nM,"C=CC(=O)Nc1cccc(-n2c(=O)n(-c3cccc(Oc4cccc(F)c4)c3)c3cnccc32)c1 [Example 75, N-(3-(3-(3-(3-fluorophenoxy)phenyl)-2-oxo-2,3-dihydro-1H-imidazo[4,5-c]pyridin-1-yl)phenyl)acrylamide]"
8,10 to 100 nM,"C=CC(=O)N1CC[C@@H](n2c(=O)n(-c3ccc(Oc4cc(F)cc(F)c4)c(Cl)c3)c3cnccc32)C1 [Example 39, (R)-1-(1-acryloylpyrrolidin-3-yl)-3-(3-chloro-4-(3,5-difluorophenoxy)phenyl)-1H-imidazo[4,5-c]pyridin-2(3H)-one]"
9,10 to 100 nM,"C=CC(=O)N1CC[C@@H](n2c(=O)n(-c3ccc(Oc4cccc(C)c4OC)cc3)c3cnccc32)C1 [Example 67, (R)-1-(1-acryloylpyrrolidin-3-yl)-3-(4-(2-methoxy-3-methylphenoxy)phenyl)-1H-imidazo[4,5-c]pyridin-2(3H)-one]"
10,100 to 1000 nM,"C=CC(=O)Nc1cccc(-n2c(=O)n(-c3ccc(NC(=O)c4ccc(C(F)(F)F)cc4)cc3)c3cnccc32)c1 [Example 263, N-(4-(1-(3-acrylamidophenyl)-2-oxo-1,2-dihydro-3H-imidazo[4,5-c]pyridin-3-yl)phenyl)-4-(trifluoromethyl)benzamide]"
11,100 to 1000 nM,"C=CC(=O)Nc1cccc(-n2c(=O)n(-c3ccc(OCc4c(F)cccc4F)c(F)c3)c3cnccc32)c1 [Example 227, N-(3-(3-(4-((2,6-difluorobenzyl)oxy)-3-fluorophenyl)-2-oxo-2,3-dihydro-1H-imidazo[4,5-c]pyridin-1-yl)phenyl)acrylamide]"
12,10 to 100 nM,"C=CC(=O)N1CCC[C@@H](n2c(=O)n(-c3ccc(Oc4cccc(Cl)c4Cl)cc3)c3cnccc32)C1 [Example 100, (R)-1-(1-acryloylpiperidin-3-yl)-3-(4-(2,3-dichlorophenoxy)phenyl)-1,3-dihydro-2H-imidazo[4,5-c]pyridin-2-one]"
13,100 to 1000 nM,"C=CC(=O)N1CC[C@@H](n2c(=O)n(-c3ccc(OCc4cc(F)ccc4F)c(Cl)c3)c3cnccc32)C1 [Example 206, (R)-1-(1-acryloylpyrrolidin-3-yl)-3-(3-chloro-4-((2,5-difluorobenzyl)oxy)phenyl)-1H-imidazo[4,5-c]pyridin-2(3H)-one]"
14,≤ 10 nM,"C=CC(=O)N1CCC[C@@H](n2c(=O)n(-c3ccc(Oc4cccc(OC)c4F)cc3)c3cncc(C)c32)C1 [Example 168, (R)-1-(1-acryloylpiperidin-3-yl)-3-(4-(2-fluoro-3-methoxyphenoxy)phenyl)-7-methyl-1H-imidazo[4,5-c]pyridin-2(3H)-one]"
15,10 to 100 nM,"C=CC(=O)Nc1cccc(-n2c(=O)n(-c3ccc(Oc4cccc(C)c4C)c(Cl)c3)c3cnccc32)c1 [Example 148, N-(3-(3-(3-chloro-4-(2,3-dimethylphenoxy)phenyl)-2-oxo-2,3-dihydro-1H-imidazo[4,5-c]pyridin-1-yl)phenyl)acrylamide]"
16,10 to 100 nM,"C=CC(=O)N1CC[C@@H](n2c(=O)n(-c3ccc(Oc4ccccc4)cc3)c3cncc(C#N)c32)C1 [Example 181, (R)-1-(1-acryloylpyrrolidin-3-yl)-oxo-3-(4-phenoxyphenyl)-2,3-dihydro-1H-imidazo[4,5-c] pyridine-7-carbonitrile]"
